# Laboratory results taken from patent US9212359B2, “Systems for induction of gene expression and protein depletion in yeast” (priority 2011, dated 2015).
# Tests used:
# Assay type in all cases: cell-based, S. cerevisiae
# [1] = system: GEV-GFP; assay: GEV-GFP nuclear localization after β-estradiol pulse, single-cell microscopy (DBY11415)
# Method: Fluorescence was measured with an epifluorescence Nikon Eclipse-TI inverted microscope using a Nikon 40×/0.95NA DIC Plan Apo objective. The microscope is equipped with a PerfectFocus system (Nikon) for maintaining the correct focal plane, a Clara CCD Camera (Andor DR328G) for recording fluorescence emission, and a TI-S-ER motorized stage with encoders to ensure near perfect return to marked stage positions (Nikon MEC56100). GEV-GFP emission was visualized at 525 nm (50-nm bandwidth) upon excitation at 470 nm (40-nm bandwidth) (Chroma #49002_Nikon ETGFP filter cube). […]
# Overnight cultures of DBY11415 (MATa/MATα HTB2-mCherry-caURA3/HTB2 his3/HIS3, (gal1+PGAL10):: loxP/GAL1, gal4::LEU2/GAL4, HAP1+/hap1−, leu2Δ0::PACT1-GEV-GFP-KanMX/LEU2) were grown in LFM overnight to saturation. […] The Klett was monitored, and at Klett 40 cells were loaded into 96-well glass-bottomed optical plates for microscopy (Nunc #265300). […]
# Image processing was performed by preprocessing the images in ImageJ and then using a custom written Matlab script to extract the intensities in the nuclei relative to the cytoplasm. Briefly, the image processing was done as follows: Fluorescence images were background subtracted using the rolling ball background subtraction command in ImageJ using a ball radius of 50 pixels. […]
# These preprocessed images were then analyzed using a custom-written Matlab script. […]
# [2] = system: PGAL1-CBF1; assay: GEV-mediated induction of PGAL1-CBF1 transcript, microarray (DBY12040); settings: by 5 minutes following addition of β-estradiol
# Method: (§1) For induction experiments, yeast were cultured in 500 mL chemostats (Sixfors; Bottmingen, Switzerland) under phosphate-limitation (20 mg/L potassium phosphate) and pulsed with 1 μM β-estradiol (Tocris Biosciences; Missouri). For the MET4 induction experiment, phosphate-limited media was supplemented with 200 mg/L methionine. Culture volume was maintained at 300 mL. 12-18 hours of batch phase growth prior to pump turn-on was initiated from a 1/60 dilution of cells grown overnight in the same medium. Cultures were grown at 30° C., stirred at 400 RPM, and aerated at 5 L/min with filtered humidified air.
# RNA from cells was extracted, labeled, and hybridized to Agilent expression microarrays as described by (Brauer et al., 2008) with slight modifications. Briefly, RNA was extracted from frozen cells with a standard acid-phenol method and then cleaned with RNeasy (Qiagen). Cleaned mRNA was then converted to cDNA and subsequently converted to labeled cRNA with the Agilent Quick-Amp Labeling Kit (Part No. 5190-0424). Microarray hybridizations were performed for 17 hours at 65° C. and rotated on a rotisserie at 20 RPM. Microarrays were washed and then scanned with Agilent Feature Extractor Software version 9.5. […]
# For time series experiments, 5 mL of cells were taken per culture per time point. […] Enrichment for gene ontology (GO) terms was determined using GO-term finder (Boyle et al., 2004).
# [3] = system: DBY12021; assay: Growth curves in YPD liquid with β-estradiol
# Method: 100 μL of cells+media were grown on flat-bottom 96-well plates (Costar #3631). A600 was measured every 15 minutes in a Synergy HT (Biotek; Vermont) microplate reader. Cells were grown at 30° C. with medium shaking. Growth rates were computed with spline-fits using the grofit R package (KAHM et al. 2010).
# [4] = system: DBY12021; assay: Genome-wide expression after β-estradiol pulse in phosphate-limited chemostat, microarray (DBY12021)
# Method: as §1
# RNA from cells was extracted, labeled, and hybridized to Agilent expression microarrays as described by (Brauer et al., 2008) with slight modifications. Briefly, RNA was extracted from frozen cells with a standard acid-phenol method and then cleaned with RNeasy (Qiagen). Cleaned mRNA was then converted to cDNA and subsequently converted to labeled cRNA with the Agilent Quick-Amp Labeling Kit (Part No. 5190-0424). Microarray hybridizations were performed for 17 hours at 65° C. and rotated on a rotisserie at 20 RPM. Microarrays were washed and then scanned with Agilent Feature Extractor Software version 9.5. Flagged features marked as unreliable were marked N/A. Raw green- and red-channel intensities were floored to a value of 350 (i.e., intensities below 350 were set equal to 350). If the numerator (red-channel, sample RNA) for a given measurement was floored, the denominator (green-channel, reference RNA) for that measurement was set to the average green channel intensity for that gene. The purpose of this smoothing process is to make genes with negligible red-channel signal intensity less sensitive to small fluctuations in the reference intensity. After flooring of the data, the log 2 ratios were computed.
# For time series experiments, 5 mL of cells were taken per culture per time point. Reference RNA was taken from DBY12001 grown in a phosphate-limited chemostat at a dilution rate of 0.18 h^−1. Enrichment for gene ontology (GO) terms was determined using GO-term finder (Boyle et al., 2004).
# [5] = system: TEV protease / N-end rule degradation; assay: Western blot of N-degron-tagged proteins after GEV-mediated induction of TEV; settings: 1 μM β-estradiol, YPD; for half-life of NDeg-tagged protein: power-law fit of 10, 20 and 40-minute timepoints
# Method: Total protein was extracted from ˜10 mL aliquots of cultures at ˜2×10^7 cells/mL using YPX extraction kit (Protein Discovery, Knoxville, Tenn.) with the addition of protease inhibitors (Roche tablets, cat#11836170001). Proteins were separated using Invitrogen NuPage precast 10% Bis-Tris gels and transferred to Invitrolon PVDF (Invitrogen cat#LC2005) according to the manufacturer's protocols. Primary antibody for the β-Myc epitope was mouse anti-human c-Myc from BD Pharmingen (cat#51-1485GR). Secondary antibody was goat anti-mouse-HRP (cat#115-035-003) from Jackson ImmunoResearch. Primary antibody dilution was typically 1/1000 and secondary antibodies were used at 1/10,000 dilution. Immunoreactive peptides were detected by incubation with ECL^+ detection reagent (Amersham/GE RPN2132) and imaging on HyBlot CL autoradiography film (Denville Scientific, Metuchen, N.J.). As a loading control, blots were probed with mouse monoclonal anti-β-Actin antibody loading control cat#ab8224, Abcam, Cambridge, Mass. ( 1/600 or 1/2000). Secondary antibody was as above, goat anti-mouse-HRP. Protein levels were quantified with the “Gel Analysis” feature in ImageJ and normalized to the t=0 levels in each time course.
# MET4 and MET31 genes were chosen for use in a proof of principle experiment to exemplify the protein depletion method (FIG. 8). We constructed Ndeg-modified MET4 and MET31 alleles in separate strains containing GEV and PGAL1-TEV (see Materials and Methods). Cells were grown in rich medium (YPD) and treated with 1 μMβ-estradiol at ˜2×10^7 cells/mL. Western blots were performed on proteins extracted at several time points after induction (FIG. 9). Treatment of cultures with 1 μM β-estradiol had no effect on levels of Met4p-13Myc or Met31p-13Myc lacking NDeg (FIG. 9A, 9B).
# [6] = two hours following saturating (1 μM) β-estradiol addition
molecule,measurement,setting,value
C[C@]12CC[C@@H]3c4ccc(O)cc4CC[C@H]3[C@@H]1CC[C@@H]2O [β-estradiol],concentration at which the initial rate of localization achieved its maximum,[1],≥ 1 µM
same,"CBF1 transcript level, share of maximal value",[2],~70%
same,effect on growth of GEV-containing cells,[3]; 10 nM β-estradiol,no longer show the growth defect
same,effect on growth of GEV-containing cells,[3]; high concentrations of β-estradiol,slowing of growth
same,"β-estradiol toxicity, growth of a strain lacking the GEV system",[3]; strain lacking the GEV system,slow growth does not occur
same,share of the entire genome affected by GEV-mediated activation,"[4]; 3-hour time course, K-means clustering of time course data",less than 2%
same,share of all S. cerevisiae genes changed 2-fold,[4]; two hours following 1 μM β-estradiol,about 3%
same,number of genes that decrease 2-fold,[4]; [6],105 genes
same,number of genes that increase 2-fold,[4]; [6],94 genes
"NDeg-Met4p-13Myc: N-degron-tagged, 13Myc-tagged Met4p target protein (DBY12055) (protein, UniProt P32389 1-672, looked up, N-degron tag; 13Myc tag) Transcriptional activator of …: MKQEQSHEGDSYSTEFINLFGKDTATHPSSNNGANNNGMGSTNSLDQFVATASSSSSLVTSSENRRPLIGDVTNRGNTNLYDHAVTPEILLEQLAYVDNFIPSLDNEFSNVDWNVNTTHNNANNNGADTFSSINANPFDLDEQLAIELSAFADDSFIFPDEDKPSNNNNNSNNGNDDHSNHDVLHEDPSTNNRQRNPHFLTQRRNTFLTSQYDQSKSRFSSKNKRNGNNGETNNFGDNMQNNHPFEPNFMGSPSQFPADATNMTSIDHGGFTNVDITSTENNTTGDNGVDALSNLLHRTTHTPNRSSPLSNVTSAQNSSSQQRKHSESKVDSNSDNNSSNKAPNITVPDYSIIPTSVLVTLLPRVNVPNGAYNSLISAGFDNDQIDAIAAIMAYHHQKKIRENNSNNNKNINTNDSQEAPILKNINELLSVLIPPSPAETRGPTTLSTSPSFNEHGVVAEASFLSSILELGIKHPKSNNIHNQRQPSRNDHKISRESDGNNGNDNVHHNNAVIKSSTTRGDEIAKIRSEPTLNASSSDHKENSLKRSHSGDLKNKKVPVDRKYSDNEDDEYDDADLHGFEKKQLIKKELGDDDEDLLIQSKKSHQKKKLKEKELESSIHELTEIAASLQKRIHTLETENKLLKNLVLSSGETEGIKKAESLKKQIFEKVQKE",half-life of NDeg-tagged protein,[5],16 min
"Met4p-13Myc: 13Myc-tagged Met4p lacking NDeg (DBY11440), control protein (protein, UniProt P32389 1-672, looked up, 13Myc tag, 13Myc-tagged Met4p lacking NDeg (DBY11440), control protein) Transcriptional activator of …: MKQEQSHEGDSYSTEFINLFGKDTATHPSSNNGANNNGMGSTNSLDQFVATASSSSSLVTSSENRRPLIGDVTNRGNTNLYDHAVTPEILLEQLAYVDNFIPSLDNEFSNVDWNVNTTHNNANNNGADTFSSINANPFDLDEQLAIELSAFADDSFIFPDEDKPSNNNNNSNNGNDDHSNHDVLHEDPSTNNRQRNPHFLTQRRNTFLTSQYDQSKSRFSSKNKRNGNNGETNNFGDNMQNNHPFEPNFMGSPSQFPADATNMTSIDHGGFTNVDITSTENNTTGDNGVDALSNLLHRTTHTPNRSSPLSNVTSAQNSSSQQRKHSESKVDSNSDNNSSNKAPNITVPDYSIIPTSVLVTLLPRVNVPNGAYNSLISAGFDNDQIDAIAAIMAYHHQKKIRENNSNNNKNINTNDSQEAPILKNINELLSVLIPPSPAETRGPTTLSTSPSFNEHGVVAEASFLSSILELGIKHPKSNNIHNQRQPSRNDHKISRESDGNNGNDNVHHNNAVIKSSTTRGDEIAKIRSEPTLNASSSDHKENSLKRSHSGDLKNKKVPVDRKYSDNEDDEYDDADLHGFEKKQLIKKELGDDDEDLLIQSKKSHQKKKLKEKELESSIHELTEIAASLQKRIHTLETENKLLKNLVLSSGETEGIKKAESLKKQIFEKVQKE",effect of β-estradiol treatment on levels of protein lacking NDeg,[5],no effect
"NDeg-Met31p-13Myc: N-degron-tagged, 13Myc-tagged Met31p target protein (DBY12234) (protein, UniProt Q03081 1-177, looked up, N-degron tag, 13Myc tag) Transcriptional regulator …: MKLAQDMNVDEIFLKQAAEAIAVISSSPTHTDPIIRELLHRIRQSSPLSAVIPAPENVLKAGEPENMARGLIRIPETQTKRTGGNNHSKEGAQLYSCAKCQLKFSRSSDLRRHEKVHSLVLPHICSNCGKGFARKDALKRHSNTLTCQRNRKKLSEGSDVDVDELIKDAIKNGTGLL",half-life of NDeg-tagged protein,[5],13.75 min
"Met31p-13Myc: 13Myc-tagged Met31p lacking NDeg (DBY12235), control protein (protein, UniProt Q03081 1-177, looked up, C-terminal 13Myc tag, 13Myc-tagged Met31p lacking NDeg (DBY12235), control protein) Transcriptional regulator …: MKLAQDMNVDEIFLKQAAEAIAVISSSPTHTDPIIRELLHRIRQSSPLSAVIPAPENVLKAGEPENMARGLIRIPETQTKRTGGNNHSKEGAQLYSCAKCQLKFSRSSDLRRHEKVHSLVLPHICSNCGKGFARKDALKRHSNTLTCQRNRKKLSEGSDVDVDELIKDAIKNGTGLL",effect of β-estradiol treatment on levels of protein lacking NDeg,[5],no effect
